Paper PMC2077808 (2007)

How the values were obtained:
[1] = tested on: ADP-ASAP (DNA:RNA, aptamer, RNA aptamer with all-DNA 30-nt antisense element; single rA in DNA substrate flanked by fluorescein-dT and DABCYL-dT) GGAGACGAGGGGTCGAACCGTAGCCCGAAGGTAGGAAGAGTGCCCCGGACAAUCAGACACGGUCUCCACTCTTCCTAGCTATGGTTCGATCAAGA; experiment: fluorescence enhancement kinetics, MgZ DNAzyme cleavage sensor; conditions: 20 mM MgCl2
[2] = tested on: ATP-ASAP (DNA, aptamer, single rA at cleavage site in DNA substrate, flanked by fluorescein-dT and DABCYL-dT) CTTCGGAGGAGAACCATAGTCGGGGGAGAAGATGTGTCCGTGCTATGGTTCGA; experiment: initial rate of fluorescence enhancement, MgZ DNAzyme cleavage sensor; conditions: 20 mM MgCl2, 50 mM HEPES pH 7.0, 0.001% Tween-20, room temperature, 5 nM ASAP, 50 nM MgZ
[3] = tested on: ADP-ASAP (DNA:RNA, aptamer, RNA aptamer with all-DNA 30-nt antisense element; single rA in DNA substrate flanked by fluorescein-dT and DABCYL-dT) GGAGACGAGGGGTCGAACCGTAGCCCGAAGGTAGGAAGAGTGCCCCGGACAAUCAGACACGGUCUCCACTCTTCCTAGCTATGGTTCGATCAAGA; experiment: as above; conditions: 20 mM MgCl2, 50 mM HEPES pH 7.0, 0.001% Tween-20, room temperature, 5 nM ASAP, 1 µM MgZ
[4] = tested on: ATP-ASAP (DNA, aptamer, single rA at cleavage site in DNA substrate, flanked by fluorescein-dT and DABCYL-dT) CTTCGGAGGAGAACCATAGTCGGGGGAGAAGATGTGTCCGTGCTATGGTTCGA; experiment: fluorescence enhancement kinetics, MgZ DNAzyme cleavage sensor; conditions: 20 mM MgCl2; 50 mM HEPES pH 7.0, 0.001% Tween-20, room temperature; highest tested 1 mM
[5] = 50 mM HEPES pH 7.0, 0.001% Tween-20, room temperature, highest tested 1 mM

Nc1ncnc2c1ncn2[C@@H]1O[C@H](COP(=O)(O)OP(=O)(O)OP(=O)(O)O)[C@@H](O)[C@H]1O was tested, and the binding ([1]; 50 mM HEPES pH 7.0, room temperature, no signal at 200 µM, signal at 300-1000 µM) was “weak” and the “apparent K d” value [2] was 456 ± 47 µM.

Nc1ncnc2c1ncn2[C@@H]1O[C@H](COP(=O)(O)OP(=O)(O)O)[C@@H](O)[C@H]1O was tested, and the “apparent K d” value [3] was 35 ± 3 µM.

For Nc1ncnc2c1ncn2[C@@H]1O[C@H](COP(=O)(O)O)[C@@H](O)[C@H]1O, the binding [1, 5] was “no”.

In the case of Nc1nc2c(ncn2[C@@H]2O[C@H](COP(=O)(O)OP(=O)(O)OP(=O)(O)O)[C@@H](O)[C@H]2O)c(=O)[nH]1, the binding [4] is reported as “no”.

For Nc1ncnc2c1ncn2[C@@H]1O[C@H](CO)[C@@H](O)[C@H]1O, the binding [1, 5] was “no”.
